Results published in patent US20250304587A1, “WEE1 INHIBITOR, PREPARATION THEREFOR AND USE THEREOF” (JIANGSU TASLY DIYI PHARMACEUTICAL CO., LTD., priority 2022, published 2025).

Key:
Wee1 protein = Wee1 protein (Homo sapiens (Human), UniProt P30291); assay: TR-FRET binding of compound to Wee1 protein and Tracer 178; details: Tracer 178, read-out: IC50, inhibitory activity against Wee1 kinase
Experimental: First, solutions of the compounds in different concentration gradients were prepared. The compounds were dissolved in DMSO and the compounds were diluted 4 folds with a total of 10 dose points and 2 parallel replicates for each concentration.
The IC50 for inhibition of enzyme activity by the compounds was then calculated using GraphPad Prism 6 and fitted with a log (inhibitor) vs. response-Variable slope mode. The fitting equation was: Y=Bottom+(Top−Bottom)/(1+10^((Log IC50−X)*HillSlope)), where Y represents the percentage of residual enzyme activity known and X represents the known concentration of compound after the logarithm.

BxPC3 cells = assay: Cell Titer-Glo anti-proliferation, BxPC3 cells; format: cell-based, human; details: 3 days, read-out: Anti-proliferative activity BxPC3 (IC50 class)
Experimental: (§1) A. Evaluation of the Anti-Proliferative Effect of Compounds on BxPC3, HT-29 and OVCAR-3 Cells by the Cell Titer-Glo Method
(§2) Compound solutions of different concentration gradients were prepared. […] The cell growth group without compound was used as a positive control (maximum signal control) and the medium was used as a negative control (minimum signal control), while ensuring that the final level of DMSO in each reaction well was 0.2%. After removing the medium from the 384-well plate, 25 μl of the configured compound at different concentrations was transferred into the well plate and the compound and cells were incubated in the cell incubator at 37° C. with 5% CO2 for 3 days.
(§3) The 384-well plates were removed from the cell incubator and allowed to equilibrate for 1 h to room temperature. 25 μl of Cell Titer-Glo assay was added to each well, lysed on a shaker for 2 min and then read out (Luminescence) using a BMG PHERAStar after 10 min incubation. Calculate the inhibition rate from the luminescence signal.
(§4) to calculate the rate of inhibition of the cells by different concentrations of the compounds. The IC50 of the compound on cell activity inhibition was calculated by fitting a log(inhibitor) vs. response-Variable slope model to GraphPad Prism 6. The fitted equation was: Y=Bottom+(Top-Bottom)/(1+10^((Log IC50−X)*HillSlope)), where Y represents the rate of inhibition and X represents the concentration of the known compound after Log.

HT-29 cells = assay: Cell Titer-Glo anti-proliferation, HT-29 cells; format: cell-based, human; details: 3 days, read-out: Anti-proliferative activity HT-29 (IC50 class)
Experimental: as §1, §2, §3, §4

OVCAR-3 cells = assay: Cell Titer-Glo anti-proliferation, OVCAR-3 cells; format: cell-based; details: 3 days, read-out: Anti-proliferative activity OVCAR-3 (IC50 class)
Experimental: as §1, §2, §3, §4

HUVEC cells = assay: Cell Titer-Glo anti-proliferation, normal cells HUVEC; format: cell-based
Experimental: as §2, §3, §4
(§5) B. Evaluation of the Anti-Proliferative Effect of Compounds by the Cell Titer-Glo Method on Normal Cells HUVEC and HK2.
(§6) The test method is the same as the anti-proliferative activity evaluation of tumor cells.

HK2 cells = assay: Cell Titer-Glo anti-proliferation, normal cells HK2; format: cell-based
Experimental: as §2, §3, §4, §5, §6

Caco-2 cells = assay: Membrane permeability in Caco-2 model; format: in vitro ADME
Experimental: Caco-2 cells were purchased from the American Model Tissue Cell Collection (Rockville, MD). The cell culture medium was modified Eagle's medium (MEM) containing 10% inactivated fetal bovine serum and 1% non-essential amino acids. […] The cells were incubated for 21-28 days after inoculation for transport experiments and the apparent permeability (Papp) of Lucifer Yellow was used to characterize and verify the compactness of the cell monolayer. […] After the incubation, dilute the samples on the apical side and basolateral side, and the concentrations of compounds on the apical and basolateral sides were detected by LC-MS/MS, and the concentrations of the compounds were quantified by standard curve.

Chain of Wee1 protein (P30291 whole entry): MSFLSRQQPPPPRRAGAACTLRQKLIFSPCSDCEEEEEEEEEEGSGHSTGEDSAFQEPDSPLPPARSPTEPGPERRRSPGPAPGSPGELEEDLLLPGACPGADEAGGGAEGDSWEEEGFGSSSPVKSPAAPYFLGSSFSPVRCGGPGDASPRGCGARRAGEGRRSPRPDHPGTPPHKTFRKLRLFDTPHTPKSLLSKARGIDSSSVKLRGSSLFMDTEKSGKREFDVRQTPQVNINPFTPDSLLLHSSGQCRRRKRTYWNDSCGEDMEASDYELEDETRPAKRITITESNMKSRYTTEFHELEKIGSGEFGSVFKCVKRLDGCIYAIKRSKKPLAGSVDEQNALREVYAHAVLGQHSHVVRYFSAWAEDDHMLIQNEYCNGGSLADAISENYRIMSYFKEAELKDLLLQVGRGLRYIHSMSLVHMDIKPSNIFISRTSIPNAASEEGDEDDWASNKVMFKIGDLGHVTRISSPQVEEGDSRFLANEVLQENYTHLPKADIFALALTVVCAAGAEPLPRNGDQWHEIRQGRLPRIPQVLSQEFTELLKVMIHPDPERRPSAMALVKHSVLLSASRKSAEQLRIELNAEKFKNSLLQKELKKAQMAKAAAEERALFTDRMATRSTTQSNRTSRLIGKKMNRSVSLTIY

IC50 (Wee1 protein) [µM]	IC50 (BxPC3 cells) [µM]	IC50 (HT-29 cells) [µM]	IC50 (OVCAR-3 cells) [µM]	Efflux Ration (Caco-2 cells; Caco2)	Papp A to B (Caco-2 cells; Caco2, 10 μM, 90 min)	Papp B to A (Caco-2 cells; Caco2, 10 μM, 90 min)	Structure (SMILES)	IC50 (HUVEC cells) [µM]	IC50 (HK2 cells) [µM]
≤ 0.005	1 to 2	0.1 to 1	0.1 to 1				C=CCn1c(=O)c2cnc(Nc3ccc(N4CCN(C)CC4)cc3)nc2n1-c1ccc2c(n1)[C@@](C)(O)C1(CC2)CC1 [Compound 6a]		
≤ 0.005	1 to 2	0.1 to 1	0.1 to 1				C=CCn1c(=O)c2cnc(Nc3ccc(N4CCN(C)CC4)cc3)nc2n1-c1ccc2c3c(n(CC)c2n1)OCCC3 [Compound 17]		
≤ 0.005	1 to 2	0.1 to 1	1 to 2				C=CCn1c(=O)c2cnc(Nc3ccc(N4CCN(C)[C@@H](C)C4)cc3)nc2n1-c1ccc2c(n1)C(O)(CC)C1(CC1)C2 (some centres unmarked) [Compound 30]		
0.005 to 0.01	0.1 to 1	0.1 to 1	0.1 to 1				C=CCn1c(=O)c2cnc(Nc3ccc(N4CCC5(CCN(C)CC5)CC4)cc3)nc2n1-c1ccc2c(n1)[C@@H](O)C1(CC2)CC1 [Compound 37a]		
0.005 to 0.01	0.1 to 1	0.1 to 1	0.1 to 1				C=CCn1c(=O)c2cnc(Nc3ccc(N4CCC5(CCN(C)CC5)CC4)cc3)nc2n1-c1ccc2c(n1)[C@H](O)C1(CC2)CC1 [Compound 38b]		
	1 to 2	0.1 to 1	1 to 2				C=CCn1c(=O)c2cnc(Nc3ccc(N4CC5CC(C4)N5CCF)cc3)nc2n1-c1ccc2c(n1)C(C)(O)C1(CC2)CC1 (centres unmarked) [Compound 59b]		
	0.1 to 1	0.1 to 1	0.1 to 1				C=CCn1c(=O)c2cnc(Nc3ccc(N4CCC(N(C)C)[C@H](F)C4)cc3)nc2n1-c1ccc2c(n1)C(C)(O)C1(CC2)CC1 (some centres unmarked) [Compound 60a]		
	0.1 to 1	0.1 to 1	0.1 to 1				C=CCn1c(=O)c2cnc(Nc3ccc(N4CCC5(CCN(C)CC5)CC4)c(F)c3)nc2n1-c1ccc2c(n1)C(O)C1(CC2)CC1 (centres unmarked) [Compound 62b]		
0.005 to 0.01	0.1 to 1	0.1 to 1	0.1 to 1	9.55	0.96 10^−6 cm/s	9.17 10^−6 cm/s	C=CCn1c(=O)c2cnc(Nc3ccc(N4CCC(N(C)C)CC4)cc3)nc2n1-c1ccc2c(n1)[C@@](C)(O)C1(CC2)CC1 [Compound 65a]	> 10	0.7
	0.1 to 1	0.1 to 1	0.1 to 1				C=CCn1c(=O)c2cnc(Nc3ccc(N4CCC(N(C)C)CC4)cc3)nc2n1-c1ccc2c(n1)C(C)(O)C1(CC2)CC1 (centres unmarked) [Compound 65b]		
	0.1 to 1	0.1 to 1	1 to 2				C=CCn1c(=O)c2cnc(Nc3ccc(N4CCC(N(C)C)CC4)cc3)nc2n1-c1ccc2c(n1)C(O)C1(CC2)CC1 (centres unmarked) [Compound 66b]		
	1 to 2	1 to 2	1 to 2				C=CCn1c(=O)c2cnc(Nc3ccc(N4CC5CC(C4)N5C)c(C)c3)nc2n1-c1ccc2c(n1)C(O)C1(CC2)CC1 (centres unmarked) [Compound 67]		
	0.1 to 1	0.1 to 1	0.1 to 1				C=CCn1c(=O)c2cnc(Nc3ccc(N4CCN(C)C(C)C4)cc3)nc2n1-c1ccc2c(n1)C(O)C1(CC2)CC1 (centres unmarked) [Compound 68b]		
	1 to 2	1 to 2	1 to 2				C=CCn1c(=O)c2cnc(Nc3ccc(N4CCC5(CCN(C)CC5)CC4)cc3)nc2n1-c1ccc2c(n1)C(O)(CC)C1(CC2)CC1 (centres unmarked) [Compound 69b]		

Structure (SMILES)	IC50 (Wee1 protein) [µM]	IC50 (BxPC3 cells) [µM]	IC50 (HT-29 cells) [µM]	IC50 (OVCAR-3 cells) [µM]	Efflux Ration (Caco-2 cells; Caco2)	Papp A to B (Caco-2 cells; Caco2, 10 μM, 90 min)	Papp B to A (Caco-2 cells; Caco2, 10 μM, 90 min)	IC50 (HUVEC cells) [µM]	IC50 (HK2 cells) [µM]
C=CCn1c(=O)c2cnc(Nc3ccc(N4CC5CC(C4)N5C(C)C)cc3)nc2n1-c1ccc2c(n1)[C@H](O)C1(CC2)CC1 [Compound 39b]	0.005 to 0.01	0.1 to 1	0.1 to 1	0.1 to 1				> 10	0.73
